What was measured:
[1] = system: Sitophilus granarius; assay: Efficacy of DMDS in a silo of wheat grains infested with Sitophilus granarius (adult mortality, % NER); assay type: in vivo; settings: for Total No. of insects emerged: untreated control 271
Procedure: (§1) These two organisms are Sitophilus granarius and Sitophilus orizae.
(§2) Dimensions of the silo: • total height: 40 cm • total volume: 3.3 l • filling level: 75%, that is a grain height of […].
(§3) 99 mg of pure DMDS are deposited at the surface of the grains using a syringe. The samples collected consist of bundles of 50 g of wheat containing all the stages of development of the pathogenic organisms. After degassing by aeration of the silo at the times T, the bundles of wheat are screened and the adults are counted immediately after screening (D+0) and after 14 days (D+14). The wheat containing the other stages of development is then examined for 5 weeks.
The products CT of the concentrations C of DMDS by the times of measurement T are determined and the efficacy of the treatment in relation to the 2 pathogenic organisms studied for all the stages of development is monitored as a function of these products CT. The results are expressed: • as a percentage of the adult mortality at the times (D+0) and (D+14). • as a percentage of net emergence reduction (% NER) relative to an untreated control batch for the different stages of development of these organisms (that is to say eggs and 2nd generation, eggs and 1st stage larvae, 1st and 2nd stage larvae, 2nd and 3rd stage larvae, 3rd and 4th stage larvae, 4th stage larvae and nymphs), which corresponds to the following formula: % NER=(number of insects which emerged live from the control batch−number of insects which emerged live from the treated batch)/(number of insects which emerged live from the control batch).

[2] = system: Sitophilus orizae; assay: Efficacy of DMDS in a silo of wheat grains infested with Sitophilus orizae; assay type: in vivo; settings: same trial conditions, 20° C.
Procedure: as §1, §2, §3
The products CT of the concentrations C of DMDS by the times of measurement T are determined and the efficacy of the treatment in relation to the 2 pathogenic organisms studied for all the stages of development is monitored as a function of these products CT. […]
Under the same trial conditions, this time on organisms of the Sitophilus orizae type, similar results are obtained. The pesticidal efficacy of DMDS against the pathogenic organism Sitophilus orizae is evaluated in terms of the product CT at about 100 ghm^−3 (useful CT).

## CSSC [DMDS, dimethyl disulphide]
[1]; CT 5.8 gh.m^−3, 20° C.
  % NER Eggs and 2nd generation: 13%
  % NER Eggs and Ist stage larvae: 41%
  % NER IIIrd and IVth stage larvae: 3%
  % NER IInd and IIIrd stage larvae: 13%
  % NER IVth stage larvae and nymphs: 21%
  % NER Ist and IInd stage larvae: 20%
  % adult mortality D + 0: 0%
  % adult mortality D + 14: 8%
  Total % NER: 25%
  Total No. of insects emerged: 202
[1]; CT 6.1 gh.m^−3, 20° C.
  % NER Eggs and 2nd generation: 33%
  % NER Eggs and Ist stage larvae: 5%
  % NER IIIrd and IVth stage larvae: 19%
  % NER IInd and IIIrd stage larvae: 16%
  % NER IVth stage larvae and nymphs: 54%
  % NER Ist and IInd stage larvae: 80%
  % adult mortality D + 0: 3%
  % adult mortality D + 14: 9%
  Total % NER: 23%
  Total No. of insects emerged: 208
[1]; CT 15.0 gh.m^−3, 20° C.
  % NER Eggs and 2nd generation: 25%
  % NER Eggs and Ist stage larvae: 54%
  % NER IIIrd and IVth stage larvae: 26%
  % NER IInd and IIIrd stage larvae: 71%
  % NER IVth stage larvae and nymphs: 75%
  % NER Ist and IInd stage larvae: 88%
  % adult mortality D + 0: 64%
  % adult mortality D + 14: 93%
  Total % NER: 54%
  Total No. of insects emerged: 126
[1]; CT 26.9 gh.m^−3, 20° C.
  % NER Eggs and 2nd generation: 20%
  % NER Eggs and Ist stage larvae: 79%
  % NER IIIrd and IVth stage larvae: 65%
  % NER IInd and IIIrd stage larvae: 94%
  % NER IVth stage larvae and nymphs: 92%
  % NER Ist and IInd stage larvae: 88%
  % adult mortality D + 0: 92%
  % adult mortality D + 14: 92%
  Total % NER: 72%
  Total No. of insects emerged: 75
[1]; CT 50.5 gh.m^−3, 20° C.
  % NER Eggs and 2nd generation: 93%
  % NER Eggs and Ist stage larvae: 100%
  % NER IIIrd and IVth stage larvae: 97%
  % NER IInd and IIIrd stage larvae: 100%
  % NER IVth stage larvae and nymphs: 100%
  % NER Ist and IInd stage larvae: 100%
  % adult mortality D + 0: 100%
  % adult mortality D + 14: 100%
  Total % NER: 99%
  Total No. of insects emerged: 4
[1]; CT 88.4 gh.m^−3, 20° C.
  % NER Eggs and 2nd generation: 95%
  % NER Eggs and Ist stage larvae: 100%
  % NER IIIrd and IVth stage larvae: 100%
  % NER IInd and IIIrd stage larvae: 100%
  % NER IVth stage larvae and nymphs: 100%
  % NER Ist and IInd stage larvae: 100%
  % adult mortality D + 0: 100%
  % adult mortality D + 14: 100%
  Total % NER: 99%
  Total No. of insects emerged: 2
[1]; CT 160.4 gh.m^−3, 20° C.
  % NER Eggs and 2nd generation: 100%
  % NER Eggs and Ist stage larvae: 100%
  % NER IIIrd and IVth stage larvae: 100%
  % NER IInd and IIIrd stage larvae: 100%
  % NER IVth stage larvae and nymphs: 100%
  % NER Ist and IInd stage larvae: 100%
  % adult mortality D + 0: 100%
  % adult mortality D + 14: 100%
  Total % NER: 100%
  Total No. of insects emerged: 0
[1]; CT values greater than 50 gh.m^−3
  mortality for the majority of the stages: 100%
[1]; product CT of 160 gh.m^−3
  mortality for all the stages of development: 100%
[1]; wheat silo, 20° C.
  pesticidal efficacy in terms of the product CT (useful CT): about 100 ghm^−3
[2]
  pesticidal efficacy in terms of the product CT (useful CT): about 100 ghm^−3

Reference: patent US20070191491A1, “[…] OF STORED GOODS, ENCLOSURES, […] WORKS OF ART, WITH SULPHUR COMPOUNDS” (Arkema France, priority 2002, published 2007)
